Patent US9085608B2, “Treatment of biofilms” (LYTIX BIOPHARMA AS, priority 2008, dated 2015)
Converted amounts (≈) assume the structure as drawn. “Also recorded” adds a separate entry of the source. Where two headings read alike, the source gives them in different places.

Columns and labels:
[1] = tested on: Staphylococcus haemolyticus TUH 51-07; assay: microbe, parasite or virus in culture
Description: (§1) Bacteria were grown overnight at 37° C. in cation adjusted Mueller-Hinton II Broth (MHIIB).
(§2) We determined the MICs of oxacillin, gentamicin, tetracycline, vancomycin and linezolid using E-test (AB Biodisk, Solna, Sweden) and MICs of rifampicin using broth microdilution assay. Breakpoints were interpreted according to EUCAST criteria. […] All 3 SAMPs are tripeptides with two arginine residues providing their cationic moieties (FIG. 1). The lipophilic bulk is provided by a modified tryptophane derivate. […] The molecular weights of the SAMPs are in the range of 700-800 Dalton.

[2] = tested on: Staphylococcus epidermidis RP62A ATCC 35984; assay: microbe, parasite or virus in culture
Description: as §1, §2

[3] = tested on: Staphylococcus epidermidis TUH 08-16; assay: microbe, parasite or virus in culture
Description: as §1, §2

[4] = tested on: Staphylococcus aureus PIA90; assay: microbe, parasite or virus in culture
Description: as §1, §2

[5] = tested on: Staphylococcus aureus PIA 9; assay: microbe, parasite or virus in culture
Description: as §1, §2

[6] = tested on: Staphylococcus haemolyticus TUH 51-03; assay: microbe, parasite or virus in culture
Description: as §1, §2

[7] = tested on: six staphylococcal strains (2 S. epidermidis, 2 S. haemolyticus and 2 S. aureus); assay: Susceptibility testing under planktonic growth condition, EUCAST breakpoints; format: cell-based; settings: EUCAST criteria
Description: The six staphylococcal strains (2 S. epidermidis, 2 S. haemolyticus and 2 S. aureus) used in this study were selected based on their previously known biofilm forming capacity (Table 1).
as §1
We determined the MICs of oxacillin, gentamicin, tetracycline, vancomycin and linezolid using E-test (AB Biodisk, Solna, Sweden) and MICs of rifampicin using broth microdilution assay. Breakpoints were interpreted according to EUCAST criteria. We selected 3 different SAMPs (Compounds A, B and C; Lytix Biopharma, Tromsø, Norway—see FIG. 1) based on previously known antimicrobial activities, and determined their exact MICs with broth microdilution assay. All 3 SAMPs are tripeptides with two arginine residues providing their cationic moieties (FIG. 1). The lipophilic bulk is provided by a modified tryptophane derivate. The difference between the compounds is the size of the C-terminal modification; Compound A has the smallest and Compound B has the largest C-terminal modification (FIG. 1). The molecular weights of the SAMPs are in the range of 700-800 Dalton.

[8] = tested on: 24 h old biofilm of 6 different staphylococcal strains; assay: Biofilm metabolic activity, Alamar blue reduction; format: cell-based, S. epidermidis, S. haemolyticus, S. aureus; settings: 50 mg/L, 24 h treatment; all biofilms except S. aureus PIA 9
Description: Biofilm formation was induced in 96-well flat bottom microtitre plates (Nunclon Surface, NUNC, Roskilde, Denmark). First, overnight cultures were diluted 1:100 in MHIIB (S. epidermidis and S. haemolyticus) or tryptic soy broth (TSB) with 5% glucose and 5% NaCl (S. aureus). Two hundred of this bacterial suspension (10^7 cfu/ml) was added to each well and incubated for 24 h at 37° C. After 24 h the wells were carefully washed twice with phosphate-buffered saline (PBS) to remove planktonic bacteria. The washing procedure was evaluated by measuring metabolic activity of the PBS with the Alamar blue method, described in detail below.
The washed biofilms were subjected to treatment with antibiotics or SAMPs at different concentrations. Stock solutions of the tetracycline (Sigma Aldrich), vancomycin (Alpharma) and linezolid (Pfizer) were diluted in MHIIB to 5 mg/L, 50 mg/L and 500 mg/L, and rifampicin (Sigma Aldrich) was diluted in MHIIB to 0.01 mg/L, 0.1 mg/L and 1 mg/L. Trifluoroacetate salts of the SAMPs were dissolved in sterile water and diluted to 5 mg/L, 50 mg/L and 500 mg/L in MHIIB. 200 μl of antibiotics or SAMPs, in different concentrations, were added to each well and incubated for 24 h at 37° C. Positive controls were untreated biofilms only added 200 μl MHIIB. Negative controls were only 200 μl MHIIB, with no bacteria added.
We quantified the metabolic activity of biofilm with a slightly modified method previously described by Pettit et al. in Antimicrob. […] Briefly, the wells were washed twice with PBS. We then added 250 μl MHIIB with 5% Alamar blue (AB; Invitrogen, Carlsbad, Calif., USA) to each well. AB is a redox indicator which both fluoresces and changes colour in response to chemical reduction. The extent of reduction is a reflection of bacterial cell viability. After 1 h incubation at 37° C., absorbance was recorded at 570 and 600 nm using Versamax tuneable microplate reader (Molecular Devices, Sunnyvale, Calif., USA). […] The highest and lowest value of each run was excluded from the analyses, and the remaining 18 values were averaged.
The percent reduction of AB was calculated according to the manufacturer's formula (Invitrogen, Carlsbad, USA). We calculated mean and standard deviations (SD) of all repeated measurements.
We defined two levels of antimicrobial suppression of metabolic activity.

[9] = Staphylococcus haemolyticus, TUH5107
[10] = Staphylococcus epidermidis, ATCC35984
[11] = Staphylococcus epidermidis, TUH0816
[12] = Staphylococcus haemolyticus, TUH5103
[13] = planktonic, SE RP62A ATCC 35984
[14] = the four other staphylococcal strains

Row | Molecule | MIC [1, 9] [µg/mL] | MIC [2, 10] [µg/mL] | MIC [3, 11] [µg/mL] | MIC ([4]; Staphylococcus aureus, PIA90) [µg/mL] | MIC ([5]; Staphylococcus aureus, PIA9) [µg/mL] | MIC [6, 12] [µg/mL] | MIC ([1]; planktonic, SH TUH 51-07) [µg/mL] | MIC [2, 13] [µg/mL] | MIC ([3]; planktonic, SE TUH 08-16) [µg/mL] | MIC ([4]; planktonic, SA PIA90) [µg/mL] | MIC ([5]; planktonic, SA PIA 9) [µg/mL] | MIC ([6]; planktonic, SH TUH 51-03) [µg/mL] | susceptibility under planktonic growth [7, 14] | susceptibility under planktonic growth ([7]; the two S. aureus strains) | suppression of metabolic activity (AB reduction) [8] | other results
1 | CC(=O)NC[C@H]1CN(c2ccc(N3CCOCC3)c(F)c2)C(=O)O1 [LZD, linezolid] | 0.5 (≈ 1.48 µM) | 1 (≈ 2.96 µM) | 2 (≈ 5.93 µM) | 1 (≈ 2.96 µM) | 2 (≈ 5.93 µM) | 0.5 (≈ 1.48 µM) |  |  |  |  |  |  |  |  |  | susceptibility under planktonic growth ([7]; all 6 strains): susceptible; also recorded: sensitive
2 | gentamicin |  |  |  |  |  |  | 64 | 8 | 256 | 0.5 | 1 | 64 | resistant | susceptible |  | 
3 | CO[C@H]1/C=C/O[C@@]2(C)Oc3c(C)c(O)c4c(O)c(c(/C=N/N5CCN(C)CC5)c(O)c4c3C2=O)NC(=O)/C(C)=C\C=C\[C@H](C)[C@H](O)[C@@H](C)[C@@H](O)[C@@H](C)[C@H](OC(C)=O)[C@@H]1C [RIF, rifampicin] | 0.016 (≈ 0.0194 µM) | < 0.016 | 0.016 (≈ 0.0194 µM) | 0.016 (≈ 0.0194 µM) | < 0.016 | < 0.016 |  |  |  |  |  |  |  |  |  | 
4 | CCCCCCNC(=O)[C@H](CCCNC(=N)N)NC(=O)[C@H](Cc1c(C(C)(C)C)[nH]c2c(C(C)(C)C)cc(C(C)(C)C)cc12)NC(=O)[C@@H](N)CCCNC(=N)N [Compound C] |  |  |  |  |  |  |  |  |  |  |  |  |  |  | strong or complete suppression | MIC [1]: 4 µg/mL (≈ 5.21 µM); MIC ([2]; ATCC 35984): 4 µg/mL (≈ 5.21 µM); MIC ([3]; TUH 08-16): 2 µg/mL (≈ 2.6 µM); MIC ([4]; PIA90): 2 µg/mL (≈ 2.6 µM); MIC ([5]; PIA 9): 4 µg/mL (≈ 5.21 µM); MIC [6]: 4 µg/mL (≈ 5.21 µM)
5 | Cc1onc(-c2ccccc2)c1C(=O)N[C@@H]1C(=O)N2[C@@H]1SC(C)(C)[C@@H]2C(=O)O [OXA, oxacillin] |  |  |  |  |  |  | >256 | 8 (≈ 19.9 µM) | 16 (≈ 39.9 µM) | 1 (≈ 2.49 µM) | 1 (≈ 2.49 µM) | >256 | resistant | susceptible |  | 
6 | CC(C)(C)c1cc(C(C)(C)C)c2[nH]c(C(C)(C)C)c(C[C@H](NC(=O)[C@@H](N)CCCNC(=N)N)C(=O)N[C@@H](CCCNC(=N)N)C(=O)NCCc3ccccc3)c2c1 [Compound B] |  |  |  |  |  |  | 4 (≈ 5.08 µM) | 4 (≈ 5.08 µM) | 2 (≈ 2.54 µM) | 2 (≈ 2.54 µM) | 2 (≈ 2.54 µM) | 4 (≈ 5.08 µM) |  |  | strong or complete suppression | 
